{"source": "ChEMBL document CHEMBL1201862", "about": "“PubChem BioAssay data set” (2004)", "key": {"[1]": {"assay": "cytotoxicity in HEK-293T cells, dose response, cytotoxicity control for TCR NF-kB inhibitor project, luminescence, T-cell screen hits (AID 489026);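 also: cells exposed to compound about 14 hours before the viability readout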", "format": "functional, cell-based"}, "[2]": {"assay": "NIH-3T3 fibroblast cytotoxicity, dose response, cytotoxicity control, cell-based, fluorescence, Alamar Blue, secondary assay (AID 2327);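 also: NIH-3T3 mouse fibroblasts cultured with fluconazole at 8 µg/mL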", "format": "functional"}, "HEK293 [3]": {"system": "HEK293", "assay": "optical interference in Abeta FP readout, dose response, artefact control for IDE activator project, biochemical, fluorescence polarization (AID 588442)", "format": "functional, cell-based", "settings": "Homo sapiens"}, "[4]": {"assay": "Shn3 3'UTR reporter inhibitors, dose response, cell-based, Clone20 osteoblasts, firefly luciferase, cherry-picked (AID 624132)", "format": "functional"}, "BJ [5]": {"system": "BJ", "assay": "cytotoxicity toward BJ-TERT-LT-ST fibroblasts, dose response, cell-based, RAS-independent, luminescence (AID 1935);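 also: BJ fibroblasts immortalized with TERT plus LT and ST oncogenes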", "format": "functional", "settings": "Homo sapiens"}, "BJ [6]": {"system": "BJ", "assay": "cytotoxicity toward BJ-TERT fibroblasts, dose response, cell-based, RAS-independent, luminescence (AID 1933)", "format": "functional", "settings": "Homo sapiens"}, "INS1 [7]": {"system": "INS1", "assay": "beta cell apoptosis inhibitors, cytokine rescue, dose response, luminescence, retest (AID 449756);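 also: cell death triggered by IL-1 beta plus TNF-alpha plus IFN-gamma mixture; protective hits raise ATP signal compared with cytokine alone wells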", "format": "functional, cell-based", "settings": "Rattus norvegicus"}, "[8]": {"assay": "HepG2 cell cytotoxicity, dose response, cytotoxicity control for Shn3 inhibitor project, CellTiter-Glo, cherry-picked (AID 624134)", "format": "functional, cell-based"}, "[9]": {"assay": "inhibitors of firefly luciferase expression or activity, dose response, H4 neuroglioma cells, luminescence (AID 1990)", "format": "functional, cell-based"}, "BJ [10]": {"system": "BJ", "assay": "cells", "format": "functional, cell-based", "settings": "Homo sapiens"}, "[11]": {"assay": "Luminescence Cell-Based Dose Response HTS to Identify Inhibitors of 5'UTR Stem-Loop Driven Prion Protein mRNA Translation in H4 Neuroglioblastoma Cells. [Related pubchem assays: 1827 (Project Summary), 1813 (Primary HTS)]", "format": "functional"}, "[12]": {"target": "T1, Short transient receptor potential channel 4 (Mus musculus, UniProt Q9QUQ5)", "T1 sequence (Q9QUQ5 whole entry)": "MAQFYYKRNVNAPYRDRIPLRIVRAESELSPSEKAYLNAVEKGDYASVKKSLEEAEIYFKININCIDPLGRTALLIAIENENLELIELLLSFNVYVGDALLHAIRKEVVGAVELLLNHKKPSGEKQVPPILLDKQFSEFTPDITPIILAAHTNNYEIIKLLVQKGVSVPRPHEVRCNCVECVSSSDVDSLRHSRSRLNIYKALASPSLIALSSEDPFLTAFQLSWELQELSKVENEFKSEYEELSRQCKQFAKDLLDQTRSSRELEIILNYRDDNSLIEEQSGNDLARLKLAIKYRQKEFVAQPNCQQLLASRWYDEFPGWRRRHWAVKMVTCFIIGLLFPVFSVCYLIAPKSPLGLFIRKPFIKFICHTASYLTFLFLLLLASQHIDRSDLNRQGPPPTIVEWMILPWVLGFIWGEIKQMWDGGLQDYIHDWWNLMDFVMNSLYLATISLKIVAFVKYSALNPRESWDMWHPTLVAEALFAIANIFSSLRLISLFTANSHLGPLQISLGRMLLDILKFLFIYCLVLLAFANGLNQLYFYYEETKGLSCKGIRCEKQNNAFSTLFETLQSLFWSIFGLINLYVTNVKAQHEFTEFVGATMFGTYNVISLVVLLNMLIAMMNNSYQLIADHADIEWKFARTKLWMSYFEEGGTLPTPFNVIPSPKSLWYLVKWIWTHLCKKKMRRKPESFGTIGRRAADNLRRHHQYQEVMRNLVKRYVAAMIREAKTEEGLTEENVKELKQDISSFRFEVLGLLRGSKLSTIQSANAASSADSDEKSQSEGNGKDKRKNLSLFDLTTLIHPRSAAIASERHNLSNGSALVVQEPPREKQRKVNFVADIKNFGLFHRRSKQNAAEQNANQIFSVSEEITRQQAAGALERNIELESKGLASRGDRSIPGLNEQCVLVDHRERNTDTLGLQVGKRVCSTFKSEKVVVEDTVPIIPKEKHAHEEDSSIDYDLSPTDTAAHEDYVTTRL", "assay": "mouse TRPC4 channel activators, dose response, cell-based, HEK293 TRPC4/mu-opioid, Fluo-4 calcium (AID 434937)", "format": "functional"}, "[13]": {"assay": "inhibitors of SNCA 5'UTR-driven reporter translation, confirmation, H4 neuroglioma cells, luminescence (AID 1988)", "format": "functional, cell-based"}, "[14]": {"system": "Streptococcus sp. 'group A'", "assay": "growth inhibition of control SK(-) GAS strain, dose response, counter-screen for streptokinase expression inhibitor project, luminescence, kanamycin, BacTiterGlo, confirmation (AID 1900)", "format": "functional, organism-based"}, "[15]": {"assay": "C. albicans growth with fluconazole, confirmation, fluorescence, retest (AID 2467)", "format": "functional, cell-based"}, "Streptococcus": {"system": "Streptococcus", "assay": "Group A Streptococcus viability loss, dose response, counter-screen for streptokinase expression inhibitor project, luminescence, BacTiterGlo (AID 1915);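 also: potency for reduction of bacterial viability or growth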", "format": "functional, organism-based"}, "[16]": {"assay": "control 3'UTR Renilla luciferase suppression, dose response, counter-screen for Shn3 inhibitor project, cell-based, Clone20-Shn3RL, cherry-picked (AID 624133)", "format": "functional"}, "Beta-galactosidase": {"target": "Beta-galactosidase (Escherichia coli, UniProt Q8VNN2)", "sequence (Q8VNN2 whole entry)": "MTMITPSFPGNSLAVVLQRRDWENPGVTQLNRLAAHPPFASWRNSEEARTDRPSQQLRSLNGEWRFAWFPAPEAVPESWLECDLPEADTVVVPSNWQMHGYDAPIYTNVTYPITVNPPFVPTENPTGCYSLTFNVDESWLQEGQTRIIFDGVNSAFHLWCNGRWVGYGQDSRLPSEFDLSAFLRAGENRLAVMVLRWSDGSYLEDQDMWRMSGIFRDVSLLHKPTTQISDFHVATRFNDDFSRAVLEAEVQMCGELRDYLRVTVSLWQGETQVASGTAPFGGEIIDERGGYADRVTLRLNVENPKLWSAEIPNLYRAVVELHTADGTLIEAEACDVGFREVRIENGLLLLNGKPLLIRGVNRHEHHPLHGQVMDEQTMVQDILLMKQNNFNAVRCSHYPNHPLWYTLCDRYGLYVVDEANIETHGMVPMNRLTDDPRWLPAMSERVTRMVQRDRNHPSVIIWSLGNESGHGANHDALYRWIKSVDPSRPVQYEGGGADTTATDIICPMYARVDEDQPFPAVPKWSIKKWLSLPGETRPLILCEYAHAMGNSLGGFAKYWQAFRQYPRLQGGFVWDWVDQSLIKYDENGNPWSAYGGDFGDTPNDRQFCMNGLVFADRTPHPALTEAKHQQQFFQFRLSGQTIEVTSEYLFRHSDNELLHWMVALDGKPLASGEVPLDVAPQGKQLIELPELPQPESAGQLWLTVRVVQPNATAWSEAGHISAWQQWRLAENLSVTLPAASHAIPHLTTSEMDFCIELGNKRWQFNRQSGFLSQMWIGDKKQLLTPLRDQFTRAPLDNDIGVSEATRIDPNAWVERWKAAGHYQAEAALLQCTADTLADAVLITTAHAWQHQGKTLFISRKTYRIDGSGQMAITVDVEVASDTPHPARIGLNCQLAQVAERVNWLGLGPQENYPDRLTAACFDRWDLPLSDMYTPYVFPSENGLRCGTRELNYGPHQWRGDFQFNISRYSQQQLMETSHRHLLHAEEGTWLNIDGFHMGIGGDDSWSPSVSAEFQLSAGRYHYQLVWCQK", "assay": "beta-galactosidase enzyme inhibitors and activators, dose response, artefact control for CCR6 antagonist project, biochemical, E. coli enzyme, set 3 (AID 504712)", "format": "functional"}, "Insulin-degrading enzyme [17]": {"target": "T2, Insulin-degrading enzyme (Homo sapiens, UniProt P14735)", "T2 sequence (P14735 whole entry)": "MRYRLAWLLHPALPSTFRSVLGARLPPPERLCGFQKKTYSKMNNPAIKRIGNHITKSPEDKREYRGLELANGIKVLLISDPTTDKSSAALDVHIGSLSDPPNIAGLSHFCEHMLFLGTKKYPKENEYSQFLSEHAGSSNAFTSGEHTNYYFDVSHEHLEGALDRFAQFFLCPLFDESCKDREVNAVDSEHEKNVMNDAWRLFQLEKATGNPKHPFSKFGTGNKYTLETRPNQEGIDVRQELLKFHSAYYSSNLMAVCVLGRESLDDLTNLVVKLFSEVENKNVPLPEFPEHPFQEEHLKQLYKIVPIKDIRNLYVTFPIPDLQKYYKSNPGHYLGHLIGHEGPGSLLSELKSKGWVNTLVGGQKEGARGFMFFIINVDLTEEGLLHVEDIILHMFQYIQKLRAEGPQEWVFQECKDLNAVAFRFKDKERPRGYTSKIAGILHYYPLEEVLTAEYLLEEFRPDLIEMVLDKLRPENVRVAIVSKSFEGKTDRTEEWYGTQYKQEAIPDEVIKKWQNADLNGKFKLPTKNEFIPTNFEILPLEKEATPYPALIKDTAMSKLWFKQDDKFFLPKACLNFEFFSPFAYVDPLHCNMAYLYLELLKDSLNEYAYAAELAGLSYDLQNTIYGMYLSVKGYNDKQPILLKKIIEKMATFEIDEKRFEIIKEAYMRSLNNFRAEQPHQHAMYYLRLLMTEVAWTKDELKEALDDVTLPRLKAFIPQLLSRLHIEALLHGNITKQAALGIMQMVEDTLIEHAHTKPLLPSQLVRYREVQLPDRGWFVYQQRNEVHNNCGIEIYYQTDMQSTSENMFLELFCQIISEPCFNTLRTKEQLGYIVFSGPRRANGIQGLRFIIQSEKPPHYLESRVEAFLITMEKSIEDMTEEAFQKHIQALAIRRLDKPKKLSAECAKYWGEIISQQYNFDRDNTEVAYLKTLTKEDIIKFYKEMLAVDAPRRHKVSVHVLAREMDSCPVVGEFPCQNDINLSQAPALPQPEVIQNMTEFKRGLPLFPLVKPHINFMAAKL", "assay": "activators of recombinant IDE enzyme, dose response, counter-screen for IDE activator project, biochemical, fluorescence polarization (AID 588681)"}, "Insulin-degrading enzyme [18]": {"target": "T2, Insulin-degrading enzyme", "assay": "activators of endogenous IDE in HEK cells, dose response, cell-based, fluorescence polarization (AID 588439)", "format": "functional"}, "BJ [19]": {"system": "BJ", "assay": "cytotoxicity toward Ras-transformed BJeLR fibroblasts, dose response, cell-based, alamar blue fluorescence, cherrypicked samples (AID 2631);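 also: confirmatory dose-response assay in RAS-dependent BJ fibroblasts engineered with TERT, LT and ST, with cytotoxicity read by fluorescence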", "format": "functional", "settings": "Homo sapiens"}, "[20]": {"assay": "cytotoxicity toward DRD oncogenic fibroblasts, dose response, cell-based, non-viral oncogenic, luminescence (AID 1934)", "format": "functional", "settings": "Homo sapiens"}, "HEK293 [21]": {"system": "HEK293", "assay": "HEK cell cytotoxicity by LDH release, dose response, cytotoxicity control for IDE activator project, fluorescence, HEK cells (AID 588440);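 also: cytotoxicity by LDH release measuring loss of membrane integrity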", "format": "functional, cell-based", "settings": "Homo sapiens"}, "[22]": {"target": "Protein disulfide-isomerase (Homo sapiens, UniProt P07237)", "sequence (P07237 whole entry)": "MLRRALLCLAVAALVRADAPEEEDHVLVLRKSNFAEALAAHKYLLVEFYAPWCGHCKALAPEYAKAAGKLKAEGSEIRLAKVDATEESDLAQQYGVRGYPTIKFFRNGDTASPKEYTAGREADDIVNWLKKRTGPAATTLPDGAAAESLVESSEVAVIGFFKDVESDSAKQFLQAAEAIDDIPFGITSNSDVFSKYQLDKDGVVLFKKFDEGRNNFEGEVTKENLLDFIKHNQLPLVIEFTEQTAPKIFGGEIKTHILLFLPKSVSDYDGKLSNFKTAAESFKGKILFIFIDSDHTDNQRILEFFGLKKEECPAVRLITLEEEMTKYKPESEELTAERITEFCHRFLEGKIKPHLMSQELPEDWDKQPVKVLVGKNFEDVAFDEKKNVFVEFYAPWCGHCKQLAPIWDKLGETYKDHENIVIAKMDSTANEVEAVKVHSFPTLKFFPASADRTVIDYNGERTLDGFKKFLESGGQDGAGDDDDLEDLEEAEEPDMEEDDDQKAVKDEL", "assay": "PDI inhibitors, insulin aggregation turbidity, dose response, biochemical, absorbance, cherry-picked samples (AID 602350)", "format": "functional"}, "INS1 [23]": {"system": "INS1", "assay": "protection of INS-1E cells from cytokine death, dose response, ATP luminescence, dry powder (AID 488844)", "format": "functional, cell-based", "settings": "Rattus norvegicus"}, "INS1 [24]": {"system": "INS1", "assay": "protection from cytokine-induced mitochondrial depolarization, dose response, cell-based, INS-1E, JC-1 fluorescence ratio, dry powder (AID 488931)", "format": "functional", "settings": "Rattus norvegicus"}, "INS1 [25]": {"system": "INS1", "assay": "inhibitors of cytokine-induced nitrite release, dose response, cell-based, Griess absorbance, INS-1E, dry powder, set 2 (AID 488868)", "format": "functional", "settings": "Rattus norvegicus"}}, "note": "Calls of active or inactive are those of the source.", "data": [{"smiles": "CNC[C@H](CC1CCCCC1)NC[C@H](Cc1ccccc1)NCCC12CC3CC(CC(C3)C1)C2", "values": [{"measurement": "IC50", "setting": "[1]", "value": "22.8 µM (inactive)"}, {"measurement": "EC50", "setting": "[2]", "value": "136 µM (inconclusive)"}, {"measurement": "EC50", "setting": "HEK293 [3]", "value": "> 55.9 µM (inactive)"}, {"measurement": "AC50", "setting": "[4]", "value": "5.51 µM (active)"}, {"measurement": "EC50", "setting": "BJ [5]", "value": "2 µM (active)"}, {"measurement": "EC50", "setting": "BJ [6]", "value": "2.64 µM (inconclusive)"}, {"measurement": "AC50", "setting": "INS1 [7]", "value": "3.77 µM (active)"}, {"measurement": "AC50", "setting": "[8]", "value": "4.47 µM (active)"}, {"measurement": "EC50", "setting": "[9]", "value": "5.5 µM (active)"}, {"measurement": "EC50", "setting": "BJ [10]", "value": "5.14 µM (inconclusive)"}, {"measurement": "EC50", "setting": "[11]", "value": "> 120 µM (not active)"}, {"measurement": "EC50", "setting": "[12]", "value": "8.41 µM (active)"}, {"measurement": "EC50", "setting": "[13]", "value": "> 120 µM (not active)"}, {"measurement": "EC50", "setting": "[14]", "value": "3.27 µM (active)"}, {"measurement": "EC50", "setting": "[15]", "value": "3.71 µM (active)"}, {"measurement": "EC50", "setting": "Streptococcus", "value": "8.1 µM (active)"}, {"measurement": "AC50", "setting": "[16]", "value": "7.45 µM (active)"}, {"measurement": "IC50", "setting": "Beta-galactosidase", "value": "> 66.6 µM (inactive)"}, {"measurement": "EC50", "setting": "Insulin-degrading enzyme [17]", "value": "> 54.7 µM (inactive)"}, {"measurement": "EC50", "setting": "Insulin-degrading enzyme [18]", "value": "7.02 µM (active)"}, {"measurement": "EC50", "setting": "BJ [19]", "value": "509 nM (inconclusive)"}, {"measurement": "EC50", "setting": "[20]", "value": "4.21 µM (active)"}, {"measurement": "IC50", "setting": "HEK293 [21]", "value": "3.37 µM (active)"}]}, {"smiles": "CN(C)C(=O)CSc1nnc([C@H](Cc2c[nH]c3ccccc23)NC(=O)OC(C)(C)C)o1", "values": [{"measurement": "AC50", "setting": "[22]", "value": "19.5 µM (active)"}]}, {"smiles": "C[C@@H]1CN([C@@H](C)CO)C(=O)c2cccc(NC(=O)Nc3ccc(F)cc3)c2O[C@H]1CN(C)S(=O)(=O)c1ccc(Cl)cc1", "values": [{"measurement": "AC50", "setting": "INS1 [23]", "value": "7.24 µM (active)"}, {"measurement": "AC50", "setting": "INS1 [24]", "value": "95.8 µM (active)"}, {"measurement": "AC50", "setting": "INS1 [25]", "value": "27.4 µM (active)"}]}]}
